Values of other authors in patent US20170196950A1, “METHOD FOR PRODUCING AUTOLOGOUS TOLEROGENIC DENDRITIC CELLS (TOLDCS) WITH SPECIFIC ANTIGENS AND THEIR USE IN THE PREPARATION OF A MEDICAMENT USEFUL FOR THE TREATMENT OF SYSTEMIC LUPUS ERYTHEMATOSUS (SLE)” (PONTIFICIA UNIVERSIDAD CATOLICA DE CHILE, priority 2014, published 2017).

Experiments:
lupus nephritis patients = settings: maintenance phase
lupus patients = settings: controlled clinical studies

Patients withdrawn from the study (lupus nephritis patients)	Compound	Patients who presented serious adverse effects (lupus nephritis patients)	Efficacy in lupus (lupus patients)
25.2%	COc1c(C)c2c(c(O)c1C/C=C(\C)CCC(=O)OCCN1CCOCC1)C(=O)OC2 [MMF, mycophenolate mofetil]	23.5%	–
39.6%	Cn1cnc([N+](=O)[O-])c1Sc1ncnc2nc[nH]c12 [azathioprine]	33.3%	–
–	rituximab	–	no efficacy
